Test results from patent US12660819B2, “Herbicidal derivatives” (SYNGENTA CROP PROTECTION AG, priority 2020, dated 2026).

Experiments:
Assay type in all cases: in vivo
[1] = test system: Amaranthus palmeri (AMAPA); assay: Post-emergence Test (glasshouse, percentage damage to the plant); conditions: post-emergence; 1000 g/ha unless otherwise stated; evaluated after 13 days
Method in brief: (§1)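 Rate 1000 g/ha unless stated otherwise. Vehicle: acetone/water 50:50 with 0.5% Tween 20, diluted into aqueous spray. Timing: spray after sowing, read 13 days later. Score: 5=81-100%, 4=61-80%, 3=41-60%, 2=21-40%, 1=0-20% damage.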

[2] = test system: Amaranthus retoflexus (AMARE); assay: as above; conditions: post-emergence; 1000 g/ha unless otherwise stated; evaluated after 13 days
Method in brief: as §1

[3] = test system: Echinochloa crus-galli (ECHCG); assay: as above; conditions: post-emergence; 1000 g/ha unless otherwise stated; evaluated after 13 days
Method in brief: as §1

[4] = test system: Ipomoea hederacea (IPOHE); assay: as above; conditions: post-emergence; 1000 g/ha unless otherwise stated; evaluated after 13 days
Method in brief: (§2)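 Damage was rated 13 days after treatment and expressed on a five-point scale: 5=81-100%, 4=61-80%, 3=41-60%, 2=21-40%, 1=0-20%. Spray was applied at 1000 g/ha unless otherwise stated, from acetone/water (50:50) with 0.5% Tween 20, to sown pots.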

[5] = test system: Setaria faberi (SETFA); assay: as above; conditions: post-emergence; 1000 g/ha unless otherwise stated; evaluated after 13 days
Method in brief: as §2

[6] = test system: Zea mays (ZEAMX); assay: as above; conditions: post-emergence; 1000 g/ha unless otherwise stated; evaluated after 13 days
Method in brief: as §2

[7] = test system: Amaranthus retoflexus (AMARE); assay: Pre-emergence Test (glasshouse, percentage damage to the plant); conditions: 1000 g/ha unless otherwise stated, Amaranthus retoflexus
[8] = test system: Setaria faberi (SETFA); assay: as above; conditions: 1000 g/ha unless otherwise stated, Setaria faberi
[9] = test system: Echinochloa crus-galli (ECHCG); assay: as above; conditions: 1000 g/ha unless otherwise stated, Echinochloa crus-galli
[10] = test system: Ipomoea hederacea (IPOHE); assay: as above; conditions: 1000 g/ha unless otherwise stated, Ipomoea hederacea
[11] = test system: Zea mays (ZEAMX); assay: as above; conditions: 1000 g/ha unless otherwise stated, Zea mays
[12] = test system: Amaranthus palmeri (AMAPA); assay: as above; conditions: 1000 g/ha unless otherwise stated, Amaranthus palmeri

Row | Structure (SMILES) | AMAPA, percentage damage caused to the plant (five-point scale) [1] | AMARE, percentage damage caused to the plant (five-point scale) [2] | ECHCG, percentage damage caused to the plant (five-point scale) [3] | IPOHE, percentage damage caused to the plant (five-point scale) [4] | SETFA, percentage damage caused to the plant (five-point scale) [5] | ZEAMX, percentage damage caused to the plant (five-point scale) [6] | percentage damage to the plant, AMARE (five-point scale) [7] | percentage damage to the plant, SETFA (five-point scale) [8] | percentage damage to the plant, ECHCG (five-point scale) [9] | percentage damage to the plant, IPOHE (five-point scale) [10] | percentage damage to the plant, ZEAMX (five-point scale) [11] | percentage damage to the plant, AMAPA (five-point scale) [12]
1 | CCn1c(C)c(-c2ccc(Cl)cc2)c(=O)c(C(=O)O)c1-c1ccc(F)c(Cl)c1 [Compound 258, 2-(3-chloro-4-fluoro-phenyl)-5-(4-chlorophenyl)-1-ethyl-6-methyl-4-oxo-pyridine-3-carboxylic acid] | 5 (5=81-100%) | 4 (4=61-80%) | 5 (5=81-100%) | 3 (3=41-60%) | 5 (5=81-100%) | 5 (5=81-100%) | 5 (5=81-100%) | 5 (5=81-100%) | 5 (5=81-100%) | 1 (1=0-20%) | 1 (1=0-20%) | 5 (5=81-100%)
2 | CCn1c(C)c(-c2cc(OC(C)C)c(Cl)cc2F)c(=O)c(C(=O)O)c1-c1ccc(Cl)c(Cl)c1 [Compound 245, 5-(4-chloro-2-fluoro-5-isopropoxy-phenyl)-2-(3,4-dichlorophenyl)-1-ethyl-6-methyl-4-oxo-pyridine-3-carboxylic acid] | 5 (5=81-100%) | 5 (5=81-100%) | 5 (5=81-100%) | 4 (4=61-80%) | 5 (5=81-100%) | 3 (3=41-60%) | 5 (5=81-100%) | 5 (5=81-100%) | 5 (5=81-100%) | 2 (2=21-40%) | 0 | 5 (5=81-100%)
3 | CCn1c(C)c(-c2ccc(Cl)cc2)c(=O)c(C(=O)O)c1-c1cnc(Cl)c(Cl)c1 [Compound 208, 5-(4-chlorophenyl)-2-(5,6-dichloro-3-pyridyl)-1-ethyl-6-methyl-4-oxo-pyridine-3-carboxylic acid] | 4 (4=61-80%) | 4 (4=61-80%) | 3 (3=41-60%) | 2 (2=21-40%) | 5 (5=81-100%) | 4 (4=61-80%) | 1 (1=0-20%) | 2 (2=21-40%) | 1 (1=0-20%) | 2 (2=21-40%) | 0 | 5 (5=81-100%)
4 | CCn1c(C)c(-c2cc(OCC3CC3)c(Cl)cc2F)c(=O)c(C(=O)O)c1-c1ccc(Cl)c(Cl)c1 [Compound 246, 5-[4-chloro-5-(cyclopropylmethoxy)-2-fluoro-phenyl]-2-(3,4-dichlorophenyl)-1-ethyl-6-methyl-4-oxo-pyridine-3-carboxylic acid] | 5 (5=81-100%) | 5 (5=81-100%) | 4 (4=61-80%) | 2 (2=21-40%) | 3 (3=41-60%) | 3 (3=41-60%) | 5 (5=81-100%) | 2 (2=21-40%) | 4 (4=61-80%) | 0 | 0 | 5 (5=81-100%)
5 | Cc1c(-c2ccc(F)cc2F)c(=O)c(C(=O)O)c(-c2ccc(Cl)c(Cl)c2)n1C [Compound 252, 2-(3,4-dichlorophenyl)-5-(2,4-difluorophenyl)-1,6-dimethyl-4-oxo-pyridine-3-carboxylic acid] | 5 (5=81-100%) | 4 (4=61-80%) | 5 (5=81-100%) | 2 (2=21-40%) | 4 (4=61-80%) | 2 (2=21-40%) | 3 (3=41-60%) | 4 (4=61-80%) | 5 (5=81-100%) | 3 (3=41-60%) | 0 | 5 (5=81-100%)
6 | Cc1c(-c2ccc(Cl)cc2F)c(=O)c(C(=O)O)c(-c2ccc(Cl)c(Cl)c2)n1C [Compound 253, 5-(4-chloro-2-fluoro-phenyl)-2-(3,4-dichlorophenyl)-1,6-dimethyl-4-oxo-pyridine-3-carboxylic acid] | 5 (5=81-100%) | 5 (5=81-100%) | 5 (5=81-100%) | 3 (3=41-60%) | 5 (5=81-100%) | 3 (3=41-60%) | 5 (5=81-100%) | 5 (5=81-100%) | 5 (5=81-100%) | 4 (4=61-80%) | 1 (1=0-20%) | 5 (5=81-100%)
7 | CCn1c(C)c(-c2ccc(F)cc2F)c(=O)c(C(=O)O)c1-c1cnc(Cl)c(Cl)c1 [Compound 210, 2-(5,6-dichloro-3-pyridyl)-5-(2,4-difluorophenyl)-1-ethyl-6-methyl-4-oxo-pyridine-3-carboxylic acid] | 4 (4=61-80%) | 5 (5=81-100%) | 4 (4=61-80%) | 3 (3=41-60%) | 4 (4=61-80%) | 3 (3=41-60%) | 3 (3=41-60%) | 2 (2=21-40%) | 1 (1=0-20%) | 0 | 0 | 4 (4=61-80%)
8 | CCn1c(C)c(-c2ccc(Cl)cc2F)c(=O)c(C(=O)O)c1-c1cnc(Cl)c(Cl)c1 [Compound 242, 5-(4-chloro-2-fluoro-phenyl)-2-(5,6-dichloro-3-pyridyl)-1-ethyl-6-methyl-4-oxo-pyridine-3-carboxylic acid] | 5 (5=81-100%) | 5 (5=81-100%) | 5 (5=81-100%) | 4 (4=61-80%) | 5 (5=81-100%) | 4 (4=61-80%) | 4 (4=61-80%) | 5 (5=81-100%) | 5 (5=81-100%) | 4 (4=61-80%) | 2 (2=21-40%) | 5 (5=81-100%)
9 | CCn1c(C)c(-c2ccc3ccccc3n2)c(=O)c(C(=O)O)c1-c1ccc(Cl)c(Cl)c1 [Compound 219, 2-(3,4-dichlorophenyl)-1-ethyl-6-methyl-4-oxo-5-(2-quinolyl)pyridine-3-carboxylic acid] | 3 (3=41-60%) | 3 (3=41-60%) | 1 (1=0-20%) | 3 (3=41-60%) | 1 (1=0-20%) | 0 | 0 | 1 (1=0-20%) | 0 | 0 | 0 | 1 (1=0-20%)
